# According to ChEMBL document CHEMBL4483862, “Open-source discovery of chemical leads for next-generation chemoprotective antimalarials” (2018):
# Tested on: Plasmodium berghei
# Assay: Luciferase/luciferin-expressing antifolate-resistant parasites were used to infect a culture of HepG2 cells that were pre-incubated with compounds. Infected hepatocytes emit light due to the luciferase reaction. Assay results are presented as the percent inhibition of light emission compared to control. […]
# Type: functional
# Details: sporozoite; for IC90: read-out: LUCIFERASE INFECTION ASSAY - IC90
# [1] = read-out: LUCIFERASE INFECTION ASSAY - IC50
Compound,IC90,IC50 [1],also measured
N#Cc1ccc(/C=N/NC(=O)c2ccc(COc3ccccc3-c3ccccc3)cc2)cc1,9.24 µM,–,"IC50 (FFLUC_HILL_SLOPE 15.4, FFLUC_R_SQUARED 0.374, HEPG2TOX_HILL_SLOPE 8.76, HEPG2TOX_R_SQUARED 0.561, PBLUC_HILL_SLOPE 30.2, PBLUC_R_SQUARED 0.437, read-out: LUCIFERASE INFECTION ASSAY - IC50): 8.6 µM"
CCCCNC(=O)c1c(NC(=O)c2ccc(OC)cc2)nc2c(C)cccn12,> 8.67 µM,> 8.67 µM,–
CCc1cc(Cl)n2nc(C(=O)OC)nc2n1,> 10 µM,> 10 µM,–
Cc1cc(C)n(-c2nc(-c3ccccc3)cc(N3CCCCCC3)n2)n1,7.45 µM,–,"IC50 (PBLUC_HILL_SLOPE 3.96, PBLUC_R_SQUARED 0.269, read-out: LUCIFERASE INFECTION ASSAY - IC50): 4.28 µM"
CCc1ccc(S(=O)(=O)N2[C@@H]3CC[C@@H](C3)[C@H]2c2nc3c(OC(C)C)cccc3[nH]2)cc1,> 10 µM,–,"IC50 (HEPG2TOX_HILL_SLOPE 3.46, HEPG2TOX_R_SQUARED 0.87, PBLUC_HILL_SLOPE 16.2, PBLUC_R_SQUARED 0.535, read-out: LUCIFERASE INFECTION ASSAY - IC50): 9.38 µM"
O=C(COC(=O)c1ccccc1NCCO)NC(=O)NCc1ccco1,> 10 µM,> 10 µM,–
CCN(CC)c1ccc(NC(=O)c2ccc(Br)o2)cc1S(=O)(=O)Nc1ccccc1OC,4.43 µM,–,"IC50 (HEPG2TOX_HILL_SLOPE 1.78, HEPG2TOX_R_SQUARED 0.619, PBLUC_HILL_SLOPE 2.27, PBLUC_R_SQUARED 0.536, read-out: LUCIFERASE INFECTION ASSAY - IC50): 1.68 µM"
O=C1/C(=C/Nc2ccccc2O)c2ccccc2C(=O)N1c1ccccc1Cl,> 10 µM,> 10 µM,–
O=C(Cn1ncc(Cl)c(Cl)c1=O)N(Cc1cccs1)c1ccc2c(c1)OCCO2,> 10 µM,–,"IC50 (PBLUC_HILL_SLOPE 8.55, 0.379, PBLUC_R_SQUARED 0.113, 0.341, read-out: LUCIFERASE INFECTION ASSAY - IC50): 6.34 µM"
Cc1ccc(OCCNC(=O)c2[nH]c3c(c2C)C(=O)CCC3)c(C)c1,2.74 µM,–,"IC50 (HEPG2TOX_HILL_SLOPE 1.42, HEPG2TOX_R_SQUARED 0.935, PBLUC_HILL_SLOPE 2.91, PBLUC_R_SQUARED 0.758, read-out: LUCIFERASE INFECTION ASSAY - IC50): 1.29 µM"
O=C(CCc1nc2ccccc2n(CCc2ccccc2)c1=O)N1CCC1,> 10 µM,> 10 µM,–
CC(Nc1ccc(Oc2ccc(Br)cc2)cc1)C(=O)Nc1ccc(S(N)(=O)=O)cc1 (stereo unspecified),> 10 µM,–,"IC50 (FFLUC_HILL_SLOPE 6.08, FFLUC_R_SQUARED 0.0812, PBLUC_HILL_SLOPE 2.58, PBLUC_R_SQUARED 0.863, read-out: LUCIFERASE INFECTION ASSAY - IC50): 4.82 µM"
COc1ccc(NC(=O)Nc2cccc(C(F)(F)F)c2)cc1,> 10.6 µM,> 10.6 µM,–
NC(=O)N/N=C/c1ccc(Cl)cc1,> 16.7 µM,> 16.7 µM,–
Cc1cc2cc(Nc3ccc(S(=O)(=O)NC(C)(C)C)cc3[N+](=O)[O-])ccc2[nH]1,> 10 µM,–,"IC50 (HEPG2TOX_HILL_SLOPE 6.66, HEPG2TOX_R_SQUARED 0.674, PBLUC_HILL_SLOPE 2.21, PBLUC_R_SQUARED 0.655, read-out: LUCIFERASE INFECTION ASSAY - IC50): 4.89 µM"
Cc1c(C(=O)NCCc2ccc3c(c2)OCCO3)cnn1-c1ccc(Cl)cc1,> 2 µM,> 2 µM,–
Cc1cccc(C)c1OC(=O)c1cn(Cc2ccccc2)nc1-c1cccnc1,> 10 µM,–,"IC50 (HEPG2TOX_HILL_SLOPE 0.808, HEPG2TOX_R_SQUARED 0.825, read-out: LUCIFERASE INFECTION ASSAY - IC50): > 10 µM"
O=C(Nc1ccccc1)Nc1cccc(C(F)(F)F)c1,4.4 µM,–,"IC50 (PBLUC_HILL_SLOPE 13.3, PBLUC_R_SQUARED 0.408, read-out: LUCIFERASE INFECTION ASSAY - IC50): 3.73 µM"
Cc1cc(O)c(C(C)C)cc1NC1=NC(=O)S/C1=C\c1ccccc1OCC(=O)Nc1ccc(Cl)cc1,9.08 µM,–,"IC50 (FFLUC_HILL_SLOPE 1.8, FFLUC_R_SQUARED 0.548, PBLUC_HILL_SLOPE 29.3, PBLUC_R_SQUARED 0.485, read-out: LUCIFERASE INFECTION ASSAY - IC50): 8.43 µM"
Cc1cc(/C=C(\C#N)C(=O)OCC(=O)c2c(N)n(CC(C)C)c(=O)n(C)c2=O)c(C)n1CC(C)C,> 10 µM,–,"IC50 (PBLUC_HILL_SLOPE 2.67, PBLUC_R_SQUARED 0.243, read-out: LUCIFERASE INFECTION ASSAY - IC50): 7.76 µM"
N#CCc1c(C#N)c(N)nc(Nc2ccc(F)cc2F)c1C#N,6.78 µM,3.64 µM,–
CCC(=O)c1cn(S(=O)(=O)c2ccc(C)cc2)c2ccccc12,3.32 µM,–,"IC50 (HEPG2TOX_HILL_SLOPE 1.47, HEPG2TOX_R_SQUARED 0.948, PBLUC_HILL_SLOPE 16.3, PBLUC_R_SQUARED 0.746, read-out: LUCIFERASE INFECTION ASSAY - IC50): 2.9 µM"

Compound,IC90,IC50 [1],also measured
CC(C)c1ccc(NC(=O)[C@@H]2Cc3ccccc3CN2C(=O)OC(C)(C)C)cc1,> 8.36 µM,–,"IC50 (PBLUC_HILL_SLOPE 2.17, PBLUC_R_SQUARED 0.544, read-out: LUCIFERASE INFECTION ASSAY - IC50): 3.19 µM"
S=C(N/N=C/c1ccc(Cl)cc1)Nc1cc(Cl)ccc1Cl,> 9.2 µM,> 9.2 µM,–
Cc1cccc(-n2cc(-c3ccccc3)c3c(N4CCN(CCO)CC4)ncnc32)c1,> 10 µM,> 10 µM,–
CN1C(=O)N(CCCc2ccncc2)C(=O)C12CCN(Cc1ccc(N3CCCC3)cc1)CC2,2.98 µM,–,"IC50 (HEPG2TOX_HILL_SLOPE 1.82, HEPG2TOX_R_SQUARED 0.908, PBLUC_HILL_SLOPE 12.5, PBLUC_R_SQUARED 0.321, read-out: LUCIFERASE INFECTION ASSAY - IC50): 2.5 µM"
Cn1c(N)c(C(=O)COC(=O)C2(c3ccccc3F)CCCC2)c(=O)n(C)c1=O,> 10 µM,> 10 µM,–
Cc1nc(SCC(=O)c2ccc(N3CCCC3=O)cc2)c2c(C)c(C)sc2n1,> 10 µM,7.98 µM,–
O=[N+]([O-])c1c(N2CCOCC2)ccc2nsnc12,> 12.4 µM,–,"IC50 (HEPG2TOX_HILL_SLOPE 10.9, HEPG2TOX_R_SQUARED 0.296, read-out: LUCIFERASE INFECTION ASSAY - IC50): > 12.4 µM"
Cc1csc(NC(=O)c2ccc3[nH]c4c(c3c2)CC(C)CC4)n1 (stereo unspecified),> 10 µM,–,"IC50 (PBLUC_HILL_SLOPE 21.4, PBLUC_R_SQUARED 0.315, read-out: LUCIFERASE INFECTION ASSAY - IC50): 9.45 µM"
CCNC(=O)C1(C)CCCN1Cc1ccc(-c2ccccc2)cc1 (stereo unspecified),> 10.2 µM,–,"IC50 (HEPG2TOX_HILL_SLOPE 7.75, HEPG2TOX_R_SQUARED 0.0398, PBLUC_HILL_SLOPE 14.9, PBLUC_R_SQUARED 0.606, read-out: LUCIFERASE INFECTION ASSAY - IC50): 9.52 µM"
O=C(NCc1cn(-c2ccccc2)nc1-c1ccc(Cl)s1)c1ccccc1C(F)(F)F,> 10 µM,–,"IC50 (HEPG2TOX_HILL_SLOPE 3.63, HEPG2TOX_R_SQUARED 0.948, PBLUC_HILL_SLOPE 1.32, PBLUC_R_SQUARED 0.654, read-out: LUCIFERASE INFECTION ASSAY - IC50): 2.44 µM"
COc1ccc(C(=O)C(/C=N/N)=N/Nc2ccc(C(F)(F)F)cc2)cc1,8.8 µM,–,"IC50 (HEPG2TOX_HILL_SLOPE 1.78, HEPG2TOX_R_SQUARED 0.947, PBLUC_HILL_SLOPE 3.28, PBLUC_R_SQUARED 0.359, read-out: LUCIFERASE INFECTION ASSAY - IC50): 4.5 µM"
O=C(Nc1nc(-c2ccc3c(c2)CCCC3)cs1)c1cnccn1,> 10 µM,> 10 µM,–
CCCc1cc(=O)oc2cc(OCC(=O)NNC(=S)NC(=O)c3ccc(Cl)cc3)ccc12,> 6.96 µM,> 6.96 µM,–
O=C(CN1CCN(Cc2nc3ccccc3s2)CC1)N1CCc2ccccc21,> 10 µM,> 10 µM,–
Nc1nccnc1C(=O)NNC(=O)COc1ccccc1Cc1ccccc1,3.67 µM,–,"IC50 (HEPG2TOX_HILL_SLOPE 1.59, HEPG2TOX_R_SQUARED 0.794, PBLUC_HILL_SLOPE 15.4, PBLUC_R_SQUARED 0.41, read-out: LUCIFERASE INFECTION ASSAY - IC50): 3.18 µM"
O=C(Nc1nc(CN2CCOCC2)cs1)c1ccc(-c2ccccc2)cc1,> 10 µM,–,"IC50 (HEPG2TOX_HILL_SLOPE 0.446, HEPG2TOX_R_SQUARED 0.661, PBLUC_HILL_SLOPE 0.824, PBLUC_R_SQUARED 0.624, read-out: LUCIFERASE INFECTION ASSAY - IC50): 0.817 µM"
CCN(CC)c1ccc(/C=N/NC(=S)NCC2CCCO2)c(O)c1 (stereo unspecified),> 10 µM,–,"IC50 (HEPG2TOX_HILL_SLOPE 16.0, 27.0, HEPG2TOX_R_SQUARED 0.190, 0.836, PBLUC_HILL_SLOPE 15.6, PBLUC_R_SQUARED 0.223, read-out: LUCIFERASE INFECTION ASSAY - IC50): 8.89 µM"
Cc1[nH]c2ccc(F)cc2c(=O)c1I,1.32 µM,–,"IC50 (PBLUC_HILL_SLOPE 10, PBLUC_R_SQUARED 0.604, read-out: LUCIFERASE INFECTION ASSAY - IC50): 1.06 µM"
CCN(CC)S(=O)(=O)c1cc(C(=O)Nc2nc3ccccc3[nH]2)n(C)c1,9.54 µM,–,"IC50 (HEPG2TOX_HILL_SLOPE 9.29, HEPG2TOX_R_SQUARED 0.829, PBLUC_HILL_SLOPE 13.1, PBLUC_R_SQUARED 0.63, read-out: LUCIFERASE INFECTION ASSAY - IC50): 8.06 µM"
CCOC(=O)Cc1nn(Cc2nc(-c3ccc(C(F)(F)F)cc3)cs2)c(=O)c2ccccc12,> 6.97 µM,> 6.97 µM,–
CCN(CC)S(=O)(=O)c1cccc(C(=O)N/N=C(\C)c2cc(Cl)ccc2Cl)c1,> 10 µM,–,"IC50 (PBLUC_HILL_SLOPE 2.08, PBLUC_R_SQUARED 0.0166, read-out: LUCIFERASE INFECTION ASSAY - IC50): 7.74 µM"
